As usually defined, the half-life is the time needed for the level to fall by half in the phase considered. As usually defined, the IC50 is the point on the concentration scale where inhibition reaches its midpoint.

These results are taken from patent US20050240034A1, “Artemisinin-based peroxide compounds as broad spectrum anti-infective agents” (priority 2002, published 2005).

Data set [1] concerns P. falciparum. Particulars: cited from earlier work.
The nature of data set [2]: pharmacokinetics in rats after intravenous and oral administration. The class given is in vivo. Particulars: for absolute oral bioavailability: high oral dose (~120 mg/kg). The method, then:
Preliminary data for the PK results of compounds 39 and 36 have been disclosed. […] Due to their very low aqueous solubility, the absolute oral bioavailability of each compound was low. The low value is rather a function of the high oral dose (˜120 mg/kg), but even with these high doses, the plasma concentrations are still relatively low.
The reason for the use of high oral dose is that the LC/MS assay has different intrinsic sensitivities for the different series of the Malperox compounds. Also, in order to compare all compounds from the different series at the same oral molar dose (dictated by the compound, which has the highest LOQ in the assay), it was necessary for them to have gone with this dose.
(§1) Compounds 39 and 36 have reasonably low plasma LOQ of about 10 ng/mL, so it will be tested with lower oral doses in the coming future. If we assume that it is only the fraction of drug in solution that is absorbed, then the oral bioavailabilities may well increase with lower doses.
Solubility limitations meant that 36 could only be dosed IV at approximate 2 mg/kg (compared with the approximate 12 mg/kg dose for 39). It is possible that the shorter measured half life for 36 was a function of lower plasma concentrations, which have reflected part of the distribution phase rather than a true elimination phase.

Data set [3] deals with P. falciparum Indochina W2 clone. Description: WHO/TDR in vitro antimalarial screen, W2 clone. The class given is cell-based, Plasmodium falciparum. Particulars: chloroquine-resistant, mefloquine-sensitive, second value in brackets not explained. The method, then: (§2) All test compounds are solubilized in DMSO and diluted 400 fold (to rule out a DMSO effect) in culture medium with plasma for a starting concentration of at least 12,500 ng/mL. Drugs are subsequently diluted five fold using the Cetus Pro/Pette system utilizing a range of concentrations from 0.8 ng/mL to 12,500 ng/mL. Fifty percent inhibitory concentrations are reported in ng/mL.
(§3) The D6 African P. falciparum clone is sensitive to chloroquine, pyrimethamine and sulfadoxine but resistant to mefloquine. The W2 Indochina P. falciparum clone is resistant to chloroquine, pyrimethamine and sulfadoxine but sensitive to mefloquine. The K1 P. falciparum is a resistant strain, where NF54 P. falciparum is a sensitive strain.

Data set [4] has as its system P. falciparum D6 (Sierra Leone). Nature of the data set: antimalarial parasite LDH (pLDH) assay, D6. The class given is cell-based, Plasmodium falciparum. Particulars: for P. falciparum (IC50) D6: LDH assay, Table 6; for S. I. (D6): Selectivity Index = IC50 (Vero cells)/IC50 (P. falciparum). The protocol:
(§4) The Thad Cochran National Center for Natural Products Research (University of Mississippi) in vitro antimalarial screen was conducted using an enzyme assay for detection of P. falciparum (see procedure below). This assay is based on the observation that lactate dehydrogenase (LDH) of P. falciparum is distinguishable from host LDH activity. P. falciparum LDH rapidly uses 3-acetyl pyridine nicotinamide adenine dinucleotide (APAD) as a coenzyme in the biotransformation of […].^38 The same process is carried out in human red blood cells at a very slow rate.
(§5) The “Antimalarial parasite LDH assay” is currently being conducted according the following procedure: prepare a suspension of RBC with a 2% parasitemia and 2% hematocrit in malaria complete medium. Dispense 200 μl aliquots of this suspension into each well of a 96 well microtiter plate. Add 10 μl volumes of the drugs to be tested in duplicate to the appropriate wells. Place the plates into humidified chamber and flush the cultures with a gas mixture consisting of 90% N2, 5% O2, and 5% CO2. Transfer the chamber containing the plates to an incubator, and incubate for 48 hours at 37° C. After 48 hours add 100 μl aliquots of the Malstat™ reagent to each well of a new 96-well microtiter plate Resuspend the cultures from the assay plate by mixing each well up and down several times. Remove 20 μl from each well of the resuspend culture and add to the plate containing the Malstat™ reagent. Incubate the plates at room temperature for 30 minutes. After 30 minutes, add to each well 20 μl of the 1:1 mixture of the NBT/PES solution (2 mg/ml and 0.1 mg/ml, respectively). Incubate the plates in the dark for 1 hour. Add 100 μl of 5% acetic acid solution to stop the reaction. The plate is then read at an endpoint of approximately 650 nm. The dose response curves are generated using Microsoft Excel.
(§6) Antimalarial activity of the analogues was determined in vitro on chloroquine sensitive (D)6, Sierra Leone) and resistant (W2, IndoChina) strains of Plasmodium falciparum. The 96 well microplate assay is based on evaluation of the effect of the compounds on the growth of asynchronous cultures of P. falciparum, determined by the assay of parasite lactate dehydrogenase (pLDH) activity.^28 The appropriate dilutions of the compounds were prepared in DMSO or RPMI-1640 medium and added to the cultures of P. falciparum (2% hematocrit, 2% parasitemia) set up in clear flat bottomed 96 well plates. The plates were placed into the humidified chamber and flushed with a gas mixture of 90% N2, 5% CO2 & 5% O2. The cultures were incubated at 37° C. for 48 hours. Growth of the parasite in each well was determined by pLDH assay using Malstat® reagent. The medium and RBC controls were also set-up in each plate. The standard antimalarial agents, chloroquine and artemisinin, were used as the positive controls while DMSO was tested as the negative control.

Data set [5] has as its system P. falciparum W2 (IndoChina). Description: antimalarial parasite LDH (pLDH) assay, W2. The class given is cell-based, Plasmodium falciparum. Particulars: for P. falciparum (IC50) W2: LDH assay, Table 6; for S. I. (W2): Selectivity Index = IC50 (Vero cells)/IC50 (P. falciparum). The protocol:
as §4, §5
as §6, with “plate.” for “plate. The standard antimalarial agents, chloroquine and artemisinin, were used as the positive controls while DMSO was tested as the negative control.”

The subject of data set [6] is P. falciparum Sierra Leone D6 clone. Description: WHO/TDR in vitro antimalarial screen (uptake of radiolabeled nucleic acid precursor), D6 clone. It is filed as cell-based, Plasmodium falciparum. To be noted: mefloquine-resistant, chloroquine-sensitive, second value in brackets not explained. The protocol:
as §2, §3

Data set [7] relates to P. berghei N. Description: in vivo Peter's 4-day antimalarial test in mice, P. berghei N. To be noted: mice, 4-day test, unit not given; for P. berghei N P.O. ED50 / P. berghei N P.O. ED90: oral; for P. berghei N S.C. ED50 / P. berghei N S.C. ED90: subcutaneous. The protocol: (§7) The parasitemia is determined on the day following the last treatment—day 4 to determine qualitatively the presence and degree of activity at the screening dose.

Data set [8] deals with P. yoelli ssp. NS. Nature of the data set: in vivo 4-day antimalarial test in mice, P. yoelli ssp. NS. Particulars: subcutaneous; unit not given. The method, then: as §7
Data set [9] concerns P. falciparum NF54. Description: WHO/TDR in vitro antimalarial screen, NF54. It is filed as cell-based, Plasmodium falciparum. To be noted: NF54, chloroquine-sensitive; second value in brackets not explained. The protocol: (§8) […]. All test compounds are solubilized in DMSO and diluted 400 fold (to rule out a DMSO effect) in culture medium with plasma for a starting concentration of at least 12,500 ng/mL. Drugs are subsequently diluted five fold using the Cetus Pro/Pette system utilizing a range of concentrations from 0.8 ng/mL to 12,500 ng/mL. Fifty percent inhibitory concentrations are reported in ng/mL.
as §3

Data set [10] relates to P. falciparum K1. Nature of the data set: WHO/TDR in vitro antimalarial screen, K1. The class given is cell-based, Plasmodium falciparum. Particulars: K1, chloroquine-resistant. The method, then: as §8, §3
A short description of data set [11]: aqueous solubility. It is filed as physicochemical. Particulars: pH 6.5, phosphate buffer. The method, then: as §1
Data set [12] deals with VERO cells (monkey kidney fibroblast). The class given is cell-based. The protocol: (§9) Antileishmanial activity of the compounds was tested on a transgenic cell line of Leishmania donovani promastigotes expressing firefly luciferase.^29a In a 96 well microplate assay, compounds with appropriate dilution were added to the leishmania promastigotes culture (2×10^6 cell/mL). The plates were incubated at 26° C. for 72 hours and growth of leishmania promastigotes was determined by luciferase assay with Steady Glo® reagent (Promega, USA). Pentamidine and Amphotericin B were used as standard antileishmanial agents. The analogues were simultaneously tested for cytotoxicity on VERO cells (monkey kidney fibroblast) by Neutral Red assay.^29b IC50 values for the compounds were computed from the growth inhibition curve.

Data set [13] deals with Leishmania donovani promastigotes expressing firefly luciferase. Description: antileishmanial luciferase assay on transgenic promastigotes. It is filed as cell-based. Particulars: Table 1 (artemisinin analogues); NA = not active up to 125 μg/ml; read-out: Antileishmanial activity IC50. The method, then:
as §9

For the molecule `C[C@H]1[C@@H](O)O[C@@H]2O[C@@]3(C)CC[C@H]4[C@H](C)CC[C@@H]1[C@@]24OO3` [dihydroartemisinin], in [1], the “times more potent than the parent compound (artemisinin) in vitro” value was “approximately 10 times”.
As to “(+)-Octahydro-3,6α-dimethyl-3,12-epoxy-9β-(3′-(p-trifluoromethylphenyl)propyl)-12H-pyrano[4,3j]-1,2-benzodioxepin [Compound 39]”, in data set [2] (IV, approximate 12 mg/kg), the half-life turned out to be 1.22 h. For the same molecule, the absolute oral bioavailability result in [2] is recorded as “low”. In addition, the “P. falciparum (IC50) W2” value in data set [3] turned out to be 0.05801 µg/mL. In [4], the “P. falciparum (IC50) D6” value worked out at 0.012 µg/mL and the “S. I. (D6)” value was over 40. In data set [5], the “P. falciparum (IC50) W2” value came out at 0.012 µg/mL and the “S. I. (W2)” value was over 40. Moreover, in data set [6], the “P. falciparum (IC50) D6” value came to 0.02813 µg/mL. In data set [7], the “P. berghei N P.O. ED50” value is listed as 0.63 (0.32-1.25), the “P. berghei N P.O. ED90” value was 2.1 (1.1-4.1), the “P. berghei N S.C. ED50” value is given as 0.44 (0.25-0.62) and the “P. berghei N S.C. ED90” value is 0.85 (0.5-1.2). In [8], the “P. yoelli ssp. NS (S.C.) ED50” value is on record as 0.67 (0.5-0.88) and the “P. yoelli ssp. NS (S.C.) ED90” value was 1.25 (0.95-1.6). For the same molecule, the “P. falciparum (IC50) NF54” value in data set [9] was 101.52 (48.78) ng/mL. In addition, in data set [10], the “P. falciparum (IC50) K1” value amounted to 0.03955 µg/mL. The same molecule displayed an aqueous solubility in [11] of about 0.1 microgram per mL.
“(+)-Octahydro-3,6α-dimethyl-3,12-epoxy-9β-(3′-(m-chlorophenyl)propyl)-12H-pyrano[4,3j]-1,2-benzodioxepin [Compound 36]”: the absolute oral bioavailability result in [2] is “low”. For the same molecule, the “P. falciparum (IC50) W2” value in data set [3] was 0.0216 µg/mL. In [4], the “P. falciparum (IC50) D6” value worked out at 0.0076 µg/mL and the “S. I. (D6)” value is on record as over 63.0. Besides, in data set [5], the “P. falciparum (IC50) W2” value came to 0.008 µg/mL and the “S. I. (W2)” value is over 60. Also, the “P. falciparum (IC50) D6” value in data set [6] is 0.00755 µg/mL. Also, in data set [7], the “P. berghei N P.O. ED50” value is listed as 2.0 (0.9-3.5), the “P. berghei N P.O. ED90” value is 8.3 (3.5-14.0), the “P. berghei N S.C. ED50” value was 0.5 (0.1-1.0) and the “P. berghei N S.C. ED90” value is given as 0.9 (0.3-1.8). For the same molecule, in data set [8], the “P. yoelli ssp. NS (S.C.) ED50” value is listed as 0.60 (0.4-1.0) and the “P. yoelli ssp. NS (S.C.) ED90” value is on record as 1.00 (0.8-1.8). In addition, the “P. falciparum (IC50) NF54” value in data set [9] is 16.27 (40.19) ng/mL. Also, the “P. falciparum (IC50) K1” value in data set [10] came out at 0.01007 µg/mL. In [11], this molecule yielded an aqueous solubility of about 0.1 microgram per mL. Further, the “Cytotoxicity (Vero) TC50” value in data set [12] is given as “NC^b”.
Turning to “(+)-Octahydro-3,6α-dimethyl-3,12-epoxy-9β-(3′-(m-fluorophenyl)propyl)-12H-pyrano[4,3j]-1,2-benzodioxepin [Compound 37]”, the “P. falciparum (IC50) W2” value in [3] came out at 0.02683 µg/mL. For the same molecule, in data set [4], the “P. falciparum (IC50) D6” value was found to be 0.011 µg/mL and the “S. I. (D6)” value is over 43.0. Moreover, in [5], the “P. falciparum (IC50) W2” value is 0.012 µg/mL and the “S. I. (W2)” value is reported as over 40. In addition, the “P. falciparum (IC50) D6” value in data set [6] was 0.00828 µg/mL. Further, in [7], the “P. berghei N P.O. ED50” value is 0.9 (0.38-1.9), the “P. berghei N P.O. ED90” value was 3.4 (1.45-7.5), the “P. berghei N S.C. ED50” value is recorded as 0.46 (0.19-1.1) and the “P. berghei N S.C. ED90” value is given as 0.85 (0.36-2.3). Besides, in data set [8], the “P. yoelli ssp. NS (S.C.) ED50” value was 0.58 (0.45-1.0) and the “P. yoelli ssp. NS (S.C.) ED90” value was 1.00 (0.8-1.8). Besides, in data set [13], the IC50 amounted to 88.3 µM. In data set [9], the “P. falciparum (IC50) NF54” value is 41.76 (27.33) ng/mL. The “P. falciparum (IC50) K1” value in data set [10] stood at 0.01156 µg/mL.
